Measurements as given in patent US10072055B2, “Anti-inflammatory pharmaceutical products” (Resother Pharma APS, priority 2011, dated 2018).
“Also recorded” adds a separate entry of the source. Ends that are not written are not given here.

What was measured:
FPR2 = biological target: T1, FPR2 (Homo sapiens, UniProt P25090); assay: FPR2 activation (ERK phosphorylation and intracellular calcium fluxes); assay type: cell-based
T1 sequence (P25090 1-351): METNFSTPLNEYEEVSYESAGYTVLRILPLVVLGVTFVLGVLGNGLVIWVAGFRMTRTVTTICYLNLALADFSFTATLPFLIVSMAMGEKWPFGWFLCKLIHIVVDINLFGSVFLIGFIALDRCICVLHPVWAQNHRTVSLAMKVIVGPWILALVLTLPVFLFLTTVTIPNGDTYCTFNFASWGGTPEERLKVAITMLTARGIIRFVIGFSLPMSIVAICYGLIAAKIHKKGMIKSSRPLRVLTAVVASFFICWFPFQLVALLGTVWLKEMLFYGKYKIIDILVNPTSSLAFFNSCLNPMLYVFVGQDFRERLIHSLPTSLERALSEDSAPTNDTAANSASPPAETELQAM

FPR1 = biological target: T2, FPR1 (Homo sapiens, UniProt P21462); assay: FPR1 activation (ERK phosphorylation and intracellular calcium fluxes); assay type: cell-based
T2 sequence (P21462 1-350): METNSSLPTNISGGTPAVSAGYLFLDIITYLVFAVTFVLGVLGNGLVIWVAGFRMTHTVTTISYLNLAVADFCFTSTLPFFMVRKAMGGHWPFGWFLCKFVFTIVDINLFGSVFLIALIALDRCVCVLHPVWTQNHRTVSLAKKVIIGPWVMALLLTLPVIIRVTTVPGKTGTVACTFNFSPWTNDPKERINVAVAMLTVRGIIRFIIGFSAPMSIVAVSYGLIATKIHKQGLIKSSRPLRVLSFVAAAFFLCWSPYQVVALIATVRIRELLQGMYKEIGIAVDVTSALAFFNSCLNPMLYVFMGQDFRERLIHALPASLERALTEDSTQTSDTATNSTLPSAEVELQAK

[1] = tested on: leukocyte recruitment into the inflamed airpouch; assay: Mouse IL-1β air-pouch inflammation model (leukocyte migration); assay type: in vivo; details: mouse air-pouch
Method: FIG. 3A and FIG. 3B are a series of bar charts comparing the anti-inflammatory effects of three polypeptides (Pep57 (SEQ ID NO:12); Pep59 (SEQ ID NO:13) and Pep84 (SEQ ID NO:14)) of the present disclosure versus a vehicle-only control.
FIG. 3A and FIG. 3B are a series of bar charts comparing the anti-inflammatory effects of three polypeptides (Pep57 (SEQ ID NO: 12); Pep59 (SEQ ID NO: 13) and Pep84 (SEQ ID NO: 14)) of the present disclosure versus a vehicle-only control. Mice received 200 μl i.v. of saline+DMSO or a dose of 50 μg per animal of one of the three Ac2-26 derived peptides, immediately before the local injection of mouse IL-1β into 6-day-old airpouches. The extent of cell migration was determined 4 h later, following airpouch washing and staining of migrated cells with Gr1 marker. […] Data are mean±SEM of 5 mice per group. *P<0.05 vs. vehicle group (one way ANOVA).

[2] = tested on: inflamed microcirculation; assay: Inflamed microcirculation in vivo; parameters: species or system murine
reperfusion injury = assay: Myocardial ischemia/reperfusion injury, infarct size (LADCA occlusion); assay type: in vivo, C57/B16 mice; details: i.v. bolus at beginning of reperfusion; 25 min ischemia, 120 min reperfusion
Method: (§1) Infarct size in C57/B16 mice (˜30 g body weight) following 25 min ischemia (occlusion of the left anterior descending coronary artery; [LADCA]) and 120 min reperfusion. Vehicle or UGP022 (SEQ ID NO:5) were administered i.v. (over 5 sec bolus) at beginning of reperfusion. Area at Risk was measured following re-occlusion and injection of Evans blue dye. Infarct size was determined following NBT staining of the Area at Risk. Results are mean±SEM of 4 mice per group; **P<0.01
as §1, with “(LADCA occlusion)” for “(occlusion of the left anterior descending coronary artery; [LADCA])”, “Vehicle, UGP025” for “Vehicle or UGP022”, “NO:7) (5 μg) or UGP026 (SEQ ID NO:8) (5 μg)” for “NO:5)”

[3] = tested on: phagocytosis of apoptotic cells; assay: Phagocytosis of apoptotic PMN (efferocytosis); assay type: cell-based
From the text: FIG. 5 is a series of bar charts reporting the ability of three polypeptides (UGP022 (SEQ ID NO:5); UGP025 (SEQ ID NO:7) and UGP026 (SEQ ID NO:8))_of the present disclosure, at different concentrations, to mimic an Annexin A1 property of inducing phagocytosis of apoptotic cells.
In recent years important pro-resolving properties have been ascribed to Annexin A1, namely the induction of phagocytosis of apoptotic cells by macrophages and cells alike. This effect is also reliant on FPR2 and shared with other important pro-resolving mediators including the lipoxins and the resolvins.
FIG. 5 is a series of bar charts reporting the ability of three polypeptides (UGP022 (SEQ ID NO:5); UGP025 (SEQ ID NO:7) and UGP026 (SEQ ID NO:8)) of the present disclosure, at different concentrations, to mimic an Annexin A1 property of inducing phagocytosis of apoptotic cells.

[4] = Anti-inflammatory properties, test not specified

activation of FPR2 (FPR2) | activation of FPR1 (FPR1) | Substance | inhibition of leukocyte infiltration/recruitment in air-pouch model [1] | anti-inflammatory properties in the inflamed microcirculation [2] | tissue protection / reduction of reperfusion injury (infarct size) (reperfusion injury) | induction of phagocytosis of apoptotic PMN [3] | in vitro results, amidated vs free acid precursor [4] | anti-inflammatory properties in vitro and in vivo [4]
could activate both FPR1 and FPR2 | could activate both FPR1 and FPR2 | AMVSEFLKQAWFIENEEQEYVQTVKSSKGGPGSAVSPYPTFNPSSDVAA-NH2 [UGP022, ANXA1(2-50)-NH2] | more potent than either the UGP021 peptide; also recorded: the more potent at inhibiting leukocyte recruitment into the inflamed airpouch | potency equivalent to human recombinant Annexin A1 | potent tissue protective properties; also recorded: reduce the risk of reperfusion injury relative to a vehicle-only control | displaying the higher ability to induce this process | shows better in vitro results than with a free acid precursor | 
 |  | AMVSEFLKQAWFIENEEQEYVQTLKSSKGGPGSAVSPYPTFNPSSDVAA-NH2 [UGP026, Leu25-ANXA1(2-50)-NH2] |  |  | affording cardioprotection; also recorded: reduce the risk of reperfusion injury relative to a vehicle-only control | promoted phagocytosis of the apoptotic PMN |  | possess anti-inflammatory properties both in vitro and in vivo
 |  | AMVSEFLKQAWFIENEEQEYVQTLKSSKGGPGSAVSPYPTFNPSSDV-NH2 [UGP025, Leu25-ANXA1(2-48)-NH2] |  |  | affording cardioprotection; also recorded: reduce the risk of reperfusion injury relative to a vehicle-only control | promoted phagocytosis of the apoptotic PMN |  | seeming more potent
